Measured values reported in patent publication US20260347310A1, “PHENALKYLAMINES AND METHODS OF MAKING AND USING THE SAME” (GILGAMESH PHARMACEUTICALS, INC., priority 2022, published 2026).
Where two headings read alike, the source gives them in different places.

Experiment: Pharmacokinetics in plasma of rats after oral and intravenous dosing; oral bioavailability
Type: in vivo, Sprague Dawley rats
Procedure: The pharmacokinetics of disclosed compounds were determined in the plasma of rats after oral and intravenous dosing, with the results presented in Table 13.
Animals. Male Sprague Dawley rats were used in these studies. Animals were randomly assigned to treatment groups and were fasted overnight before oral dosing.
Drugs. The test compound was dissolved in 10% captisol (1) or 10% DMSO and 90% normal saline (2a) and administered intravenously (iv) at 2 mg/kg (1) or 1 mg/kg (2a) or orally (po) at 10 mg/kg (1) or 1 mg/kg (2a), calculated based on freebase, and at a volume of 10 mL/kg body weight for oral administration and 5 mL/kg for IV administration. The compounds were tested as the racemates.
Sample Collection and Bioanalysis. Blood samples were collected through the external jugular vein (via cannulation) at 0.083, 0.25, 0.5, 1, 2, 4, 8, and 24 h post-dose (total 8 time points/rat, 4 rats per administration route). At each time point, ~0.2 mL of blood was withdrawn and transferred into a pre-labeled 0.5-mL micro centrifuge tube containing 4 μL of 200 mM K2EDTA solution as anticoagulant and mixed gently by inverting the tube to facilitate mixing of anticoagulant with the blood. Blood samples were kept on ice until centrifugation. The collected blood samples were centrifuged at 4,000 rpm for 10 min at 4° C. Plasma samples were separated after centrifugation, transferred into pre-labeled tubes, and stored at −70° C. until bioanalysis. For bioanalysis, a 200-μL aliquot of internal standard prepared in acetonitrile (cetirizine, 50 ng/mL) was added (except for blank, where 200 μL of acetonitrile was added) to a 96-well Solvinert filter plate followed by 5 μL of a study plasma sample or spiked calibration standard. The filter plate was then centrifuged for 5 minutes at a speed of 2,500 rpm at 4° C. with a 96-well sample collection plate. Following centrifugation, collected samples were analyzed using a fit-for-purpose LC-MS/MS method, with authentic samples of the analyte used for calibration and identification.
Data Analysis. Pharmacokinetic parameters were estimated using the non-compartmental analysis tool of Phoenix® WinNonlin software (Ver 8.1). The drug concentrations of samples below the lower limit of quantitation (LLOQ) were designated as zero.

## CCC(N)Cc1cc(OC)c(CCCCCC(F)(F)F)cc1OC (racemic) [Compound 2a, 1-(2,5-dimethoxy-4-(6,6,6-trifluorohexyl)phenyl)butan-2-amine]
Rat plasma, IV 1 mg/kg, racemate, 10% DMSO and 90% normal saline
  C0: 75.9 ng/mL
Rat plasma, IV 1 mg/kg, racemate, 10% DMSO and 90% normal saline, read-out: AUC0-last (iv)
  AUC(0-t): 90 ng·h/mL
Rat plasma, IV 1 mg/kg, racemate, 10% DMSO and 90% normal saline, read-out: t1/2 (iv) (converted)
  half-life: 2.71 h
Rat plasma, IV and PO 1 mg/kg, racemate, 10% DMSO and 90% normal saline, read-out: F (absolute oral bioavailability)
  bioavailability: 28%
Rat plasma, PO 1 mg/kg, racemate, 10% DMSO and 90% normal saline, fasted
  Cmax: 29.7 ng/mL
Rat plasma, PO 1 mg/kg, racemate, 10% DMSO and 90% normal saline, fasted, read-out: AUC0-last (po)
  AUC(0-t): 25 ng·h/mL
Rat plasma, PO 1 mg/kg, racemate, 10% DMSO and 90% normal saline, fasted, read-out: t1/2 (po) (converted)
  half-life: 3.07 h
rats, 2a 1 mg/kg iv and 1 mg/kg po, 1 2 mg/kg iv and 10 mg/kg po, racemates
  absolute oral bioavailability (F) (in words): improved absolute oral bioavailability (F), compared to 1
